Measured values published in patent publication US10131664B2 (Celgene Quanticel Research, Inc., priority 2013, dated 2018).
Counter-ions that a name gives are not always drawn.

Columns and labels:
full-length human LSD1 = full-length human LSD1 (Homo sapiens (Human), UniProt O60341); assay: In vitro enzyme inhibition assay LSD-1 (TR-FRET); assay type: biochemical; conditions: TR-FRET, 0.1 nM LSD1, 50 nM H3K4me1-biotin peptide, 2 μM FAD, pH7.3; read-out: LSD1 IC50
Procedure: This assay determines the ability of a test compound to inhibit LSD1 demethylase activity.
The enzymatic assay of LSD1 activity is based on Time Resolved-Fluorescence Resonance Energy Transfer (TR-FRET) detection.
The ability of the compounds disclosed herein to inhibit LSD1 activity was quantified and the respective IC50 value was determined. Table 5 provides the IC50 values of various substituted heterocyclic compounds disclosed herein.

THP-1 (AML) cells = assay: LSD1 CD11b cellular assay (flow cytometry); assay type: cell-based; conditions: Homo sapiens, 96 h; CD11b expression in THP-1 (AML) cells, flow cytometry, 4 days incubation; read-out: Cellular IC50
Procedure: To analyze LSD1 inhibitor efficacy in cells, a CD11b flow cytometry assay was performed. LSD1 inhibition induces CD11b expression in THP-1 (AML) cells which can be measured by flow cytometry. […] LSD1 test compounds were serially diluted in DMSO. The dilutions were added to each well accordingly to a final concentration of 0.2% DMSO. The cells were incubated at 37° C. in 5% CO2 for 4 days. 250 μL of each well was transferred to a well in a 96 well round bottom plate. The plate was centrifuged at 1200 rpm at 4 degrees Celsius in a Beckman Coulter Alegra 6KR centrifuge for 5 min. The media was removed leaving the cells at the bottom of the wells. The cells were washed in 100 μL cold HBSS (Hank's Balanced Salt Solution) plus 2% BSA (Bovine Serum Albumin) solution and centrifuged at 1200 rpm at 4° C. for 5 min. The wash was removed. […] The cells were centrifuged and washed two times in 100 μl HBSS plus 2% BSA. After the final spin the cells were resuspended in 100 μL HBSS plus 2% BSA containing 1 μg/mL DAPI (4′,6-diamidino-2-phenylindole). The cells were then analyzed by flow cytometry in a BD FACSAria machine. Cells were analyzed for CD11b expression. The percent of CD11b expressing cells for each inhibitor concentration was used to determine an IC50 curve for each compound analyzed.

Compound	IC50 (full-length human LSD1) [nM]	IC50 (THP-1 (AML) cells) [nM]
Cc1ccc(-c2nc3ccn(C[C@@H]4CCNC4)c3cc2-c2ccc(C#N)cc2)cc1 [Example 1, 4-[5-(4-methylphenyl)-1-[[(3R)-pyrrolidin-3-yl]methyl]pyrrolo[3,2-b]pyridin-6-yl]benzonitrile]	< 100	< 100
N#Cc1ccc(-c2cc3c(ccn3C[C@@H]3CCNC3)nc2Cl)cc1 [Example 2]	–	1000 to 10000
N#Cc1ccc(-c2cc3c(ccn3C[C@H]3CCNC3)nc2Cl)cc1 [Example 4, 4-[5-chloro-1-[[(3S)-pyrrolidin-3-yl]methyl]pyrrolo[3,2-b]pyridin-6-yl]benzonitrile]	100 to 1000	1000 to 10000
N#Cc1ccc(-c2cc3c(ccn3CC3(F)CCNC3)nc2N2CCOCC2)cc1 (stereo not drawn) [Example 8, 4-[1-[(3-fluoropyrrolidin-3-yl)methyl]-5-morpholin-4-ylpyrrolo[3,2-b]pyridin-6-yl]benzonitrile]	100 to 1000	–
N#Cc1ccc(-c2nc(NC[C@H]3CCNC3)ncc2Cl)cc1 [Example 17, 4-(5-chloro-2-{[(3S)-pyrrolidin-3-ylmethyl]amino}pyrimidin-4-yl)benzonitrile]	100 to 1000	–
Cc1ccc(-c2cnc(N3CCC4(CCNC4)C3)nc2-c2ccc(C#N)cc2)cc1 (stereo not drawn) [Example 35, 4-(2-{2,7-diazaspiro[4.4]nonan-2-yl}-5-(4-methylphenyl)pyrimidin-4-yl)benzonitrile]	< 100	–
Cc1ccc(-c2cnc(N3CCC4(CCNC4)CC3)nc2-c2ccc(C#N)cc2)cc1 [Example 39, 4-(2-{2,8-diazaspiro[4.5]decan-8-yl}-5-(4-methylphenyl)pyrimidin-4-yl)benzonitrile]	< 100	–
Cc1ccc(-c2cnc(N3CCC4(CCCN4)CC3)nc2-c2ccc(C#N)cc2)cc1 [Example 40, 4-(2-{1,8-diazaspiro[4.5]decan-8-yl}-5-(4-methylphenyl)pyrimidin-4-yl)benzonitrile]	< 100	–
Cc1ccc(-c2nc3cnn(C4CCNCC4)c3cc2-c2ccc(C#N)cc2)cc1 [Example 48, 4-[5-(4-methylphenyl)-1-piperidin-4-ylpyrazolo[4,3-b]pyridin-6-yl]benzonitrile]	–	> 10000
N#Cc1ccc(-c2nc(N3CCC(N)CC3)ncc2-c2ccn3ncnc3c2)cc1 [Example 81, 4-[2-(4-aminopiperidin-1-yl)-5-([1,2,4]triazdo[1,5-a]pyridin-7-yl)pyrimidin-4-yl]benzonitrile]	100 to 1000	–
N#Cc1ccc(-c2nc(N3CCC4(CCNC4)CC3)ncc2-c2cnn(CC(F)(F)F)c2)cc1 [Example 121, 4-[2-(2,8-diazaspiro[4.5]decan-8-yl)-5-[1-(2,2,2-trifluoroethyl)pyrazol-4-yl]pyrimidin-4-yl]benzonitrile]	< 100	–
N#Cc1ccc(-c2nc(N3CCC(N)CC3)ncc2-c2ccc3ncnn3c2)cc1 [Example 127, 4-[2-(4-aminopiperidin-1-yl)-5-([1,2,4]triazolo[1,5-a]pyridin-6-yl)pyrimidin-4-yl]benzonitrile]	100 to 1000	–

The remaining lines, values ahead:

IC50 (full-length human LSD1) [nM]	IC50 (THP-1 (AML) cells) [nM]	Compound
100 to 1000	–	N#Cc1ccc(-c2nc(NCC3CNCCO3)ncc2-c2ccc(F)cc2)cc1 (racemic) [Example 34, (±)-4-[5-(4-fluorophenyl)-2-[(morpholin-2-ylmethyl)amino]pyrimidin-4-yl]benzonitrile]
–	100 to 1000	Cc1ccc(-c2cnc(NCC3(F)CCNC3)nc2-c2ccc(C#N)cc2)cc1 (single isomer, unassigned; (+)) [Example 28, (+)-4-(2-{[(3-fluoropyrrolidin-3-yl)methyl]amino}-5-(4-methylphenyl)pyrimidin-4-yl)benzonitrile]
–	100 to 1000	Cc1ccc(-c2cnc(NC3CCCNC3)nc2-c2ccc(C#N)cc2)cc1 (single isomer, unassigned; (+)) [Example 29, (+)-4-[5-(4-methylphenyl)-2-[(piperidin-3-yl)amino]pyrimidin-4-yl]benzonitrile]
< 100	< 100	COc1ccc(-c2nc3ccn(CC4CCNC4)c3cc2-c2ccc(C#N)c(F)c2)cc1F (stereo in doubt) [Example 55, 4-{1-[((3R)pyrrolidin-3-yl)methyl]-5-(3-fluoro-4-methoxyphenyl)pyrrolo[3,2-b]pyridin-6-yl}-2-fluorobenzenecarbonitrile, HCl salt]
< 100	< 100	Cc1ccc(-c2nc3ccn(C[C@H]4CCNC4)c3cc2-c2ccc(C#N)cc2)cc1 [Example 3, 4-[5-(4-methylphenyl)-1-[[(3S)-pyrrolidin-3-yl]methyl]pyrrolo[3,2-b]pyridin-6-yl]benzonitrile]
< 100	–	N#Cc1ccc(-c2nc(N3CC[C@@H]4CNC[C@@H]4CC3)ncc2-c2ccc(F)cc2)cc1 [Example 24, 4-{2-[(3aR,8aS)-decahydropyrrolo[3,4-d]azepin-6-yl]-5-(4-fluorophenyl)pyrimidin-4-yl}benzonitrile]
< 100	–	Cc1ccc(-c2cnc(NC3CCNCC3)nc2-c2ccc(C#N)cc2)cc1 [Example 30, 4-[5-(4-methylphenyl)-2-[(piperidin-4-yl)amino]pyrimidin-4-yl]benzonitrile]
< 100	–	Cc1ccc(-c2cnc(NCC3CCNCC3)nc2-c2ccc(C#N)cc2)cc1 [Example 32, 4-[5-(4-methylphenyl)-2-[(piperidin-4-ylmethyl)amino]pyrimidin-4-yl]benzonitrile]
< 100	–	Cc1ccc(-c2cnc(N3CCC4(CCNCC4)C3)nc2-c2ccc(C#N)cc2)cc1 [Example 36, 4-(2-{2,8-diazaspiro[4.5]decan-2-yl}-5-(4-methylphenyl)pyrimidin-4-yl)benzonitrile]
100 to 1000	–	Cc1ccc(-c2cnc(N3CC4CNCC(C3)O4)nc2-c2ccc(C#N)cc2)cc1 [Example 41, 4-[5-(4-methylphenyl)-2-{9-oxa-3,7-diazabicyclo[3.3.1]nonan-3-yl}pyrimidin-4-yl]benzonitrile]
100 to 1000	–	N#Cc1ccc(-c2nc(N3CC4CNCC(C3)O4)ncc2-c2ccc(F)cc2)cc1 [Example 42, 4-[5-(4-fluorophenyl)-2-{9-oxa-3,7-diazabicyclo[3.3.1]nonan-3-yl}pyrimidin-4-yl]benzonitrile]
< 100	–	COc1ncc(-c2cnc(N3CCC(N)CC3)nc2-c2ccc(C#N)cc2)cn1 [Example 74, 4-[2-(4-aminopiperidin-1-yl)-5-(2-methoxypyrimidin-5-yl)pyrimidin-4-yl]benzonitrile]
< 100	–	Cc1nc2cc(-c3cnc(N4CCC(N)CC4)nc3-c3ccc(C#N)cc3)ccc2n1C [Example 75, 4-[2-(4-aminopiperidin-1-yl)-5-(1,2-dimethylbenzimidazol-5-yl)pyrimidin-4-yl]benzonitrile]
100 to 1000	–	Cn1cc2nc(-c3cnc(N4CCC(N)CC4)nc3-c3ccc(C#N)cc3)ncc2n1 [Example 86]
100 to 1000	–	Cn1ncc2nc(-c3cnc(N4CCC(N)CC4)nc3-c3ccc(C#N)cc3)ncc21 [Example 88, 4-[2-(4-aminopiperidin-1-yl)-5-(1-methylpyrazolo[4,3-d]pyrimidin-5-yl)pyrimidin-4-yl]benzonitrile]
< 100	–	Cc1ncc(-c2cnc(N3CCC(N)CC3)nc2-c2ccc(C#N)cc2)cn1 [Example 90, 4-[2-(4-aminopiperidin-1-yl)-5-(2-methylpyrimidin-5-yl)pyrimidin-4-yl]benzonitrile]
< 100	–	Cc1nn(C)cc1-c1cnc(N2CCC3CNCC3CC2)nc1-c1ccc(C#N)cc1 (stereo not drawn) [Example 118, 4-[2-(2,3,3a,4,5,7,8,8a-octahydro-1H-pyrrolo[3,4-d]azepin-6-yl)-5-(1,3-dimethylpyrazol-4-yl)pyrimidin-4-yl]benzonitrile]
